These results are taken from patent publication US9018214B2, “Bicyclic heterocycle compounds and their uses in therapy” (Astex Therapeutics Limited, priority 2011, dated 2015).

For orientation: EC50 means the concentration that produces a half-maximal response. As usually defined, the IC50 is the concentration at which inhibition is half-maximal.

Test [1] relates to EVSA-T (human breast carcinoma). Briefly: Anti-proliferative activity, Alamar Blue assay, EVSA-T. The test is classed as cell-based. The following applies: Homo sapiens.
The target of test [2] is BIR3 domain of human XIAP (residues 252-350) (Homo sapiens (Human), UniProt P98170). Briefly: XIAP in vitro competitive displacement binding assay (fluorescence polarization). The note with it: for IC50: read-out: IC50 or PI Xiap: IC50. (Polarisation of emitted light reports the rotation of a fluorescent probe.)
The target of test [3] is BIR3 domain of human cIAP-1 (residues 267-363) (Homo sapiens (Human), UniProt Q13490). Briefly: cIAP-1 in vitro competitive displacement binding assay (fluorescence polarization; Probe A AVPIK(5&6FAM)-amide or Probe B AbuRPFK(5&6FAM)-amide).
The mark [4] stands for this setting: EVSA-T, 72 hours, Alamar Blue, read-out: EVSA-T prolif (EC50).
[5] abbreviates: 3 h, read-out: IC50 or PI cIAP1: PI.
Where [6] appears, read: EVSA-T, 72 h, read-out: EVSA-T prolif (EC50).
The mark [7] stands for this setting: read-out: IC50 or PI cIAP1: IC50.
Where [8] appears, read: 3 h, Probe B, @ 0.012 μM, read-out: IC50 or PI cIAP1: PI.

Structures can show the parent of a compound that is named as a salt. Where two headings read alike, the source gives them in different places.

Consider `C[C@@H]1CN(CC(=O)N2CC(C)(C)c3cnc(Cc4ccccc4)cc32)[C@@H](CN2CCCC2=O)CN1` [Example 172, 1-{[(2R,5R)-1-(2-{6-Benzyl-3,3-dimethyl-1H,2H,3H-pyrrolo[3,2-c]pyridin-1-yl}-2-oxoethyl)-5-methylpiperazin-2-yl]methyl}pyrrolidin-2-one dihydrochloride], for which, in test [1] (setting [4]), the EC50 worked out at 56 nM. The inhibition at 0.04 µM in test [2] (1 h, read-out: IC50 or PI Xiap: PI) amounted to 58%. For the same molecule, the inhibition at […] in test [3] (setting [5]) came to 78%.
Turning to `COC[C@H]1CN[C@H](C)CN1CC(=O)N1CC(C)(C)c2cnc(Cc3ccc(F)cc3F)cc21` [Example 105, 1-{6-[(2,4-Difluorophenyl)methyl]-3,3-dimethyl-1H,2H,3H-pyrrolo[3,2-c]pyridin-1-yl}-2-[(2R,5R)-2-(methoxymethyl)-5-methylpiperazin-1-yl]ethan-1-one, hydrochloride salt], in test [1] (setting [4]), the concentration giving a half-maximal response (EC50) amounted to 55 nM. The IC50 in test [2] came to 190 nM. In test [3] (3 h, Probe B, @ 0.01 μM, read-out: IC50 or PI cIAP1: PI), the inhibition at 0.01 µM amounted to 74%.
As to `C[C@@H]1CN(CC(=O)N2CC(C)(C)c3ncc(C(F)(F)CC4CC4)cc32)[C@@H](CN2CCOCC2)CN1` [Example 231, 1-[6-(2-Cyclopropyl-1,1-difluoroethyl)-3,3-dimethyl-1H,2H,3H-pyrrolo[3,2-b]pyridin-1-yl]-2-[(2R,5R)-5-methyl-2-(morpholin-4-ylmethyl)piperazin-1-yl]ethan-1-one dihydrochloride], in test [1] (setting [6]), the EC50 worked out at 67 nM. The IC50 in test [2] is 65 nM; in test [3] it was < 1000 nM; in test [3] (setting [7]) it was 9.5 nM.
As for `COC[C@H]1CN[C@H](C)CN1CC(=O)N1CC2(CN(C(C)=O)C2)c2ccc(Cl)cc21` [Example 71, 1-{1-Acetyl-6′-chloro-1′,2′-dihydrospiro[azetidine-3,3′-indole]-1′-yl}-2-[(2R,5R)-2-(methoxymethyl)-5-methylpiperazin-1-yl]ethan-1-one hydrochloride salt], the half-maximal effective concentration (EC50) in test [1] (EVSA-T cell line, 72 hours, Alamar Blue, read-out: EC50, inhibition of cell growth) is < 10000 nM; in test [1] (setting [4]), 7700 nM. The IC50 in test [2] turned out to be 490 nM; in test [3] (Probe B AbuRPFK(5&6FAM)-amide, read-out: IC50 or PI cIAP1: IC50), 540 nM.
On to `C[C@@H]1CN(CC(=O)N2CC(C)(C)c3ncc(Cc4ccccc4F)cc32)[C@@H](CN2CCOCC2)CN1` [Example 247, 1-{6-[(2-Fluorophenyl)methyl]-3,3-dimethyl-1H,2H,3H-pyrrolo[3,2-b]pyridin-1-yl}-2-[(2R,5R)-5-methyl-2-(morpholin-4-ylmethyl)piperazin-1-yl]ethan-1-one dihydrochloride], for which the EC50 in test [1] (setting [6]) amounted to 33 nM. In addition, in test [2], the half-maximal inhibitory concentration (IC50) came out at 66 nM. Moreover, the inhibition at […] in test [3] (setting [5]) turned out to be 80%.
For `C[C@@H]1CN(CC(=O)N2CC(C)(C)c3cc(F)c(S(=O)(=O)N4CCCC4)cc32)CCN1` [Example 49, 1-[5-Fluoro-3,3-dimethyl-6-(pyrrolidine-1-sulfonyl)-2,3-dihydro-indol-1-yl]-2-((R)-3-methyl-piperazin-1-yl)-ethanone dihydrochloride salt], the inhibition at 10 µM in test [1] (EVSA-T, read-out: EVSA-T prolif: % inhibition) worked out at 2%. Also, the concentration for half-maximal inhibition (IC50) was 640 nM in test [2] and 4100 nM in test [3] (setting [7]).
Turning to `C[C@@H]1CN(CC(=O)N2CC(C)(C)c3cnc(Cc4ccccc4)cc32)[C@@H](Cn2cc(F)cn2)CN1` [Example 157, 1-{6-Benzyl-3,3-dimethyl-1H,2H,3H-pyrrolo[3,2-c]pyridin-1-yl}-2-[(2R,5R)-2-[(4-fluoro-1H-pyrazol-1-yl)methyl]-5-methylpiperazin-1-yl]ethan-1-one hydrochloride], in test [1] (setting [4]), the EC50 came to 95 nM. Further, in test [2], the IC50 was found to be 65 nM. Also, the inhibition at […] in test [3] (setting [8]) is 78%.
Taken in the same sequence, the figures for `C[C@@H]1CN(CC(=O)N2CC(C)(C)c3cnc(Cc4ccccc4F)cc32)[C@@H](CN2CCOCC2)CN1` [Example 245, 1-{6-[(2-Fluorophenyl)methyl]-3,3-dimethyl-1H,2H,3H-pyrrolo[3,2-c]pyridin-1-yl}-2-[(2R,5R)-5-methyl-2-(morpholin-4-ylmethyl)piperazin-1-yl]ethan-1-one hydrochloride] were 4.2 nM, 47 nM and 86%.
